The values below are quoted from earlier work in patent US12318470B2, “Agent for dyeing keratinuos material, comprising aminosilicone, a chromophoric compound and an addition product of C1-C6 alkylene oxide(s) to the esters of fatty acids and aromatic alcohols” (Henkel AG & Co. KGaA, priority 2020, dated 2025).

For data set [1] the following is noted: 25° C.
For data set [2] the following is noted: 5% solution in water.

SMILES strings stand for the structures.

As for `O=C([O-])C1=NN(c2ccc(S(=O)(=O)[O-])cc2)C(=O)C1N=Nc1ccc(S(=O)(=O)[O-])cc1.[Na+].[Na+].[Na+]` (centres unmarked) [Acid Yellow 23, trisodium salt of 4,5-dihydro-5-oxo-1-(4-sulfophenyl)-4-((4-sulfophenyl)azo)-1H-pyrazole-3-carboxylic acid], in data set [1], the “solubility in water (in words)” value is given as “readily soluble”.
In the case of `O=S(=O)([O-])c1ccc(N=Nc2c(O)ccc3ccccc23)cc1.[Na+]` [Acid Orange 7, sodium salt of 4-[(2-hydroxy-1-naphthyl)azo]benzene sulphonate], the solubility in water result in data set [1] is listed as “more than 7 g/L”.
As to `O=C([O-])c1c(Cl)c(Cl)c(Cl)c(Cl)c1-c1c2c(Br)cc(=O)c(Br)c-2oc2c(Br)c(O)cc(Br)c12.O=C([O-])c1c(Cl)c(Cl)c(Cl)c(Cl)c1-c1c2c(Br)cc(=O)c(Br)c-2oc2c(Br)c(O)cc(Br)c12.[Na+].[Na+]` [Acid Red 92, disodium salt of 3,4,5,6-tetrachloro-2-(1,4,5,8-tetrabromo-6-hydroxy-3-oxoxanthen-9-yl)benzoic acid], in data set [1], the solubility in water result was “greater than 10 g/L”.
For the molecule `O=P([O-])(O)O.[K+]` [Potassium dihydrogen phosphate], the “pH value of solution in water” value in data set [2] was 4.4.
Regarding `Nc1cc(S(=O)(=O)[O-])cc2cc(S(=O)(=O)[O-])c(N=Nc3ccccc3)c(O)c12.[Na+].[Na+]` [Acid Red 33, diantrium salt of 5-amino-4-hydroxy-3-(phenylazo)-naphthalene-2,7-disulphonate], in data set [1], the solubility in water was 2500 µg/mL.
